Where two headings read alike, the source gives them in different places.
How the values were obtained:
A. baumannii = test: MIC, broth microdilution, CDC/FDA Antibiotic Resistance Isolate Bank (Example 7, Tables 9, 13, 14); assay type: cell-based, Acinetobacter baumannii; details: for MIC: read-out: MIC
Enterobacterales = test: MIC, broth microdilution, CDC/FDA Antibiotic Resistance Isolate Bank (Example 7, Tables 8, 11, 12); assay type: cell-based; details: for MIC50: read-out: MIC50; for MIC90: read-out: MIC90; for MIC: read-out: MIC
[1] = 154 strains of Enterobacterales
[2] = carbapenemase-producing Enterobacterales, Metallo-β-lactamase (N = 47)
[3] = carbapenemase-producing Enterobacterales, Serine carbapenemase (N=61)

CN(C)c1cc(NC(=O)CNC(C)(C)C)c(O)c2c1C[C@H]1C[C@H]3[C@H](N(C)C)C(O)=C(C(N)=O)C(=O)[C@@]3(O)C(O)=C1C2=O [Tigecycline, tigecycline]
4 µg/mL: MIC (Enterobacterales; Enterobacter cloacae, KUB No. 5660, AR Bank # 163) | MIC (Enterobacterales; Proteus mirabilis, KUB No. 5773, AR Bank # 377)
0.25 to 2 µg/mL: MICrange (A. baumannii; 55 isolates of A. baumannii)
1 µg/mL: MIC (A. baumannii; Acinetobacter baumannii, A. baumannii KUB No. 5598, AR Bank #101, OXA-24, OXA-65) | MIC (A. baumannii; Acinetobacter baumannii, A. baumannii KUB No. 5599, AR Bank #102, OXA-66) | MIC (A. baumannii; Acinetobacter baumannii, A. baumannii KUB No. 5707, AR Bank #274, OXA-66, OXA-72) | MIC (A. baumannii; Acinetobacter baumannii, A. baumannii KUB No. 5709, AR Bank #276, no carbapenemase genes (-)) | MIC (A. baumannii; Acinetobacter baumannii, A. baumannii KUB No. 5710, AR Bank #277, OXA-24, OXA-65) | MIC (A. baumannii; Acinetobacter baumannii, A. baumannii KUB No. 5713, AR Bank #280, OXA-66) | MIC (A. baumannii; Acinetobacter baumannii, A. baumannii KUB No. 5716, AR Bank #283, OXA-23, OXA-66) | MIC (A. baumannii; Acinetobacter baumannii, KUB No. 5719, AR Bank #286) | MIC (A. baumannii; Acinetobacter baumannii, KUB No. 5722, AR Bank #259) | MIC (A. baumannii; Acinetobacter baumannii, KUB No. 5724, AR Bank #291) | MIC (A. baumannii; Acinetobacter baumannii, KUB No. 5728, AR Bank #295) | MIC (A. baumannii; Acinetobacter baumannii, KUB No. 5729, AR Bank #296) | MIC (A. baumannii; Acinetobacter baumannii, KUB No. 5732, AR Bank #299) | MIC (A. baumannii; Acinetobacter baumannii, KUB No. 5734, AR Bank #301) | MIC (A. baumannii; Acinetobacter baumannii, KUB No. 5735, AR Bank #302) | MIC (A. baumannii; Acinetobacter baumannii, KUB No. 5736, AR Bank #303) | MIC (A. baumannii; Acinetobacter baumannii, KUB No. 5737, AR Bank #304) | MIC (A. baumannii; Acinetobacter baumannii, KUB No. 5739, AR Bank #306) | MIC (A. baumannii; Acinetobacter baumannii, KUB No. 5740, AR Bank #307) | MIC (A. baumannii; Acinetobacter baumannii, KUB No. 5743, AR Bank #310) | MIC50 (A. baumannii; Acinetobacter baumannii, 55 isolates of A. baumannii, read-out: MIC50) | MIC80 (A. baumannii; Acinetobacter baumannii, 55 isolates of A. baumannii, read-out: MIC80) | MIC90 (A. baumannii; Acinetobacter baumannii, 55 isolates of A. baumannii, read-out: MIC90) | MIC80 (Enterobacterales; 154 strains of Enterobacterales, read-out: MIC80) | MIC (Enterobacterales; Enterobacter cloacae, KUB No. 5778, AR Bank # 432) | MIC (Enterobacterales; Klebsiella aerogenes, Enterobacter aerogenes, KUB No. 5777, AR Bank # 431) | MIC (Enterobacterales; Klebsiella pnemnonine, KUB No. 5758, AR Bank # 362) | MIC (Enterobacterales; Klebsiella pneumoniae, KUB No. 5757, AR Bank # 361) | MIC (Enterobacterales; Klebsiella pneumoniae, KUB No. 5760, AR Bank # 364) | MIC (Enterobacterales; Klebsiella pneumoniae, KUB No. 5772, AR Bank # 376) | MIC50 (Enterobacterales; [3])
0.12 to 4 µg/mL: MICrange (Enterobacterales; [1])
0.25 µg/mL: MIC (A. baumannii; Acinetobacter baumannii, A. baumannii KUB No. 5567, AR Bank #70, OXA-58, OXA-100) | MIC (A. baumannii; Acinetobacter baumannii, A. baumannii KUB No. 5585, AR Bank #88, OXA-64, NDM-1) | MIC (A. baumannii; Acinetobacter baumannii, KUB No. 5725, AR Bank #292) | MIC (A. baumannii; Acinetobacter baumannii, KUB No. 5738, AR Bank #305) | MIC (A. baumannii; Acinetobacter baumannii, KUB No. 5745, AR Bank #312) | MIC (Enterobacterales; Escherichia coli, KUB No. 5764, AR Bank # 368) | MIC (Enterobacterales; Escherichia coli, KUB No. 5765, AR Bank # 369) | MIC (Enterobacterales; Escherichia coli, KUB No. 5766, AR Bank # 370) | MIC (Enterobacterales; Escherichia coli, KUB No. 5767, AR Bank # 371) | MIC (Enterobacterales; Escherichia coli, KUB No. 5774, AR Bank # 378)
0.5 µg/mL: MIC (A. baumannii; Acinetobacter baumannii, A. baumannii KUB No. 5580, AR Bank #83, OXA-23, OXA-69, NDM-1) | MIC (A. baumannii; Acinetobacter baumannii, A. baumannii KUB No. 5706, AR Bank #273, OXA-23, OXA-66) | MIC (A. baumannii; Acinetobacter baumannii, A. baumannii KUB No. 5708, AR Bank #275, OXA-23, OXA-66) | MIC (A. baumannii; Acinetobacter baumannii, A. baumannii KUB No. 5711, AR Bank #278, OXA-23, OXA-66) | MIC (A. baumannii; Acinetobacter baumannii, A. baumannii KUB No. 5712, AR Bank #279, OXA-23, OXA-66) | MIC (A. baumannii; Acinetobacter baumannii, A. baumannii KUB No. 5715, AR Bank #282, OXA-23, OXA-66) | MIC (A. baumannii; Acinetobacter baumannii, A. baumannii KUB No. 5717, AR Bank #284, OXA-24, OXA-65) | MIC (A. baumannii; Acinetobacter baumannii, A. baumannii KUB No. 5718, AR Bank #285, OXA-24, OXA-65) | MIC (A. baumannii; Acinetobacter baumannii, KUB No. 5720, AR Bank #287) | MIC (A. baumannii; Acinetobacter baumannii, KUB No. 5723, AR Bank #290) | MIC (A. baumannii; Acinetobacter baumannii, KUB No. 5727, AR Bank #294) | MIC (A. baumannii; Acinetobacter baumannii, KUB No. 5731, AR Bank #298) | MIC (A. baumannii; Acinetobacter baumannii, KUB No. 5733, AR Bank #300) | MIC (A. baumannii; Acinetobacter baumannii, KUB No. 5741, AR Bank #308) | MIC (A. baumannii; Acinetobacter baumannii, KUB No. 5742, AR Bank #309) | MIC (A. baumannii; Acinetobacter baumannii, KUB No. 5744, AR Bank #311) | MIC (A. baumannii; Acinetobacter baumannii, KUB No. 5746, AR Bank #313) | MIC50 (Enterobacterales; [1]) | MIC (Enterobacterales; Enterobacter cloacae, Enterobacter cloacae complex, KUB No. 5661, AR Bank # 164) | MIC (Enterobacterales; Enterobacter cloacae, KUB No. 5763, AR Bank # 367) | MIC (Enterobacterales; Escherichia coli, KUB No. 5768, AR Bank # 372) | MIC (Enterobacterales; Escherichia coli, KUB No. 5769, AR Bank # 373) | MIC (Enterobacterales; Escherichia coli, KUB No. 5770, AR Bank # 374) | MIC (Enterobacterales; Escherichia coli, KUB No. 5779, AR Bank # 433) | MIC (Enterobacterales; Escherichia coli, KUB No. 5780, AR Bank # 434) | MIC (Enterobacterales; Escherichia coli, KUB No. 5781, AR Bank # 435) | MIC (Enterobacterales; Escherichia, KUB No. 57, AR Bank # 436 (row cut off)) | MIC (Enterobacterales; Klebsiella oxytoca, KUB No. 5771, AR Bank # 375) | MIC (Enterobacterales; Klebsiella pneumoniae, KUB No. 5759, AR Bank # 363) | MIC (Enterobacterales; Proteus mirabilis, KUB No. 5775, AR Bank # 379) | MIC50 (Enterobacterales; [2])
2 µg/mL: MIC (A. baumannii; Acinetobacter baumannii, A. baumannii KUB No. 5575, AR Bank #78, OXA-71) | MIC (A. baumannii; Acinetobacter baumannii, A. baumannii KUB No. 5714, AR Bank #281, OXA-82) | MIC (A. baumannii; Acinetobacter baumannii, KUB No. 5721, AR Bank #288) | MIC (A. baumannii; Acinetobacter baumannii, KUB No. 5726, AR Bank #293) | MIC (A. baumannii; Acinetobacter baumannii, KUB No. 5730, AR Bank #297) | MIC90 (Enterobacterales; [1]) | MIC (Enterobacterales; Enterobacter cloacae, KUB No. 5761, AR Bank # 365) | MIC (Enterobacterales; Enterobacter cloacae, KUB No. 5762, AR Bank # 366) | MIC (Enterobacterales; Klebsiella oxytoca, KUB No. 5776, AR Bank # 380) | MIC90 (Enterobacterales; [2]) | MIC90 (Enterobacterales; [3]) | MIC90 (Enterobacterales; metallo-β-lactamase-producing strains of Enterobacterales)
3: Number of isolates at MIC ≤[…] (A. baumannii; MIC distribution, metallo-β-lactamase-producing A. baumannii, inhibitor µg/mL in parentheses)

— patent EP4635500A1, “THERAPEUTIC AGENT FOR BACTERIAL INFECTION” (Sumitomo Pharma Co., Ltd., priority 2022, dated 2024)
